# According to patent EP0663826B1, “AMINO ACIDS CONTAINING PARENTERAL FORMULATIONS FOR THE TREATMENT OF HYPOTENSION AND RELATED PATHOLOGIES” (BOARD OF REGENTS THE UNIVERSITY OF TEXAS SYSTEM, priority 1991, dated 1993):
# Tested on: IL-1-Induced Hypotension in Dogs
# Assay: IL-1-induced hypotension in dogs
# Type: in vivo
# Details: for MAP after arginine administration: then L-arginine 400 mg/kg
# Procedure: • FIGURE 1 - Reversal of hypotension associated with the administration of IL-1 to dogs. The tracing shown is a representative experiment that was repeated four times. Each dog was anesthetized and […] as described herein, and baseline cardiovascular data were monitored for 30 minutes. IL-1 was dissolved in phosphate-buffered saline (pH 7.4) containing 1 mg/ml of dog albumin, and the resulting solution was infused intravenously for three minutes to deliver a dose of 50 µg/kg. MAP was continuously monitored; when a stable nadir was reached and maintained for more than 10 minutes or when MAP dropped below 50 mm Hg, NAA (20 mg/kg in 10 ml phosphate-buffered saline) was administered by intravenous infusion for 30 seconds. Sixty minutes after MAP was restored to baseline or higher values, L-arginine (400 mg/kg in 20 ml phosphate-buffered saline) was administered by slow intravenous infusion for 5 minutes. Anesthetized dogs given IL-1 (50 µg/kg) developed a progressive, moderately severe hypotension, with MAP decreasing from a baseline of 111 +/- 7 mm Hg to 80 +/- 2 mm Hg within about 3 hours. Hypotension was rapidly reversed by the intravenous administration of a single bolus dose of NAA (20 mg/kg, 88 umol/kg), with MAP increasing by from 46 +/- 9 mm Hg (58%_ to 125 +/- 8 mm Hg. • FIGURES 2A, 2B, 2C - Inhibition of IL-1-activated NO· production by N^ω-substituted arginine analogues. Figure 2A: Comparison of nitrite synthesis inhibition in smooth muscle cells by the L-isomers of NAA, NMA, and NNA and by the D-isomer of NMA. Figure 2B: Concentration dependence of nitrite synthesis inhibition in smooth muscle cells by NAA as a function of different L-arginine concentration in the culture medium. Confluent monolayers of smooth muscle cells in 96-well microtiter plates were treated with a combination of 100 ng/ml IL-1 and 50 ng/ml IFN-γ for 24 hours. Cells were then washed with Hanks' balanced salt solution, and fresh medium containing the indicated concentration of L-arginine was added. Points indicate means ± SD of nitrite production, expressed as percent of control, during a 16-hour exposure to arginine analogues (n = 3-4). Figure 2C: Effect of NAA on smooth muscle cell NO· synthase. Cytosol from cytokine-induced smooth muscle cells (∼2 µg protein) was incubated with 1 mM L-arginine, 0.5 mM NADPH, 1 mM dithiothreitol, 10 µM flavin-adenine dinucleotide, 10 µM tetrahydrobiopterin, and 0.1 U/ml dihydropteridine reductase in a total volume of 100 µL. The time course of Fe^2+-myoglobin oxidation was measured in the absence (control) or presence of 300 µM NAA (+NAA). […] FIGURE A: Time course of nitrite synthesis elicited by 40 ng/mL IL-1 alone (open circles) and by IL-1 in the presence of 50 ng/ml IFN-γ (open triangles). […] Inclusion of IL-1 receptor antagonist (40 µg/mL; filled symbols) in the culture medium inhibited nitrite production stimulated by both IL-1 and IL-1 plus IFN-γ. FIGURE B: IL-1 concentration dependence for smooth muscle cell nitrite production. Data points indicate nitrite produced during a 29-hour incubation with the indicated concentration of IL-1 alone (open circles) or in the presence of IL-1 plus 50 ng/mL IFN-γ (open triangles). All values are means ± SD for nitrite production by confluent smooth muscle cell monolayers grown in 96-well microtiter plates (60-80 X 10^3 cells per well; n = 3-4).
# Experiments were conducted on healthy mongrel dogs that were free of microfilaria and weighed 25-28 kg each. […]
smiles,measurement,setting,value
N=C(N)NCCC[C@H](N)C(=O)O [L-arginine],average decrease in systemic vascular resistance following arginine,"IL-1-treated animals given NAA, then arginine",61%
same,MAP after arginine administration,IL-1-treated dogs given NAA,66 ± 27 mm Hg
same,MAP after arginine administration,control dogs given NAA,essentially at baseline levels
